Reference: US6413539B1, “Hydrogel-forming, self-solvating absorbable polyester copolymers, and methods for use thereof” (Poly-Med, Inc., priority 1996, dated 2002)

assay: Binding of acidic organic drugs to anion-exchanger; assay type: physicochemical; details: sodium salt of drug; anion-exchanger of Example XIII
Protocol: The preparation of the anion-exchanger is achieved in two steps. […] In the second step, the practically non-ionic microparticles are incubated in hot dilute solution (^˜80° C.) of hexanediamine of known concentration in dioxane under argon for 2-4 hours. The concentration of the diamine in dioxane is determined by acidimetry. When the reaction practically ceases to take place, the aminated microparticles are separated by filtration, rinsed with dioxane, and dried under reduced pressure. The binding capacity of the anion-exchanger (aminated particles) is determined by (1) elemental analysis for nitrogen and (2) extent of binding to naproxin by measuring the extent of drug removed from a dilute solution using HPLC. The latter is confirmed by release of the immobilized naproxin with a dilute sodium hydroxide solution of known concentration.
Typical examples of acidic organic drugs that are available as sodium salt are ganciclovir, naproxin, and ibuprofen. In typical experiments, the aforementioned drugs are bound to the anion-exchanger of Example XIII following a similar scheme to that used in the same example describing the binding of naproxin.

% Drug bound to anion-exchanger [%] | Compound
6 | Nc1nc(O)c2ncn(COC(CO)CO)c2n1 [Ganciclovir, ganciclovir]
11 | COc1ccc2cc([C@H](C)C(=O)O)ccc2c1 [Naproxin, naproxin]
8 | CC(C)Cc1ccc(C(C)C(=O)O)cc1 (stereo not drawn) [Ibuprofen, ibuprofen]
